Tests used:
[1] = target: T1, KAT8 Histone acetyltransferase KAT8 C416 (Q9H7Z6) (Homo sapiens, UniProt Q9H7Z6); assay: Cysteine reactivity ABPP; type: binding; conditions: 100
T1 construct: endogenous in cells; host or cells: primary human T cells
T1 sequence (Q9H7Z6 1-458): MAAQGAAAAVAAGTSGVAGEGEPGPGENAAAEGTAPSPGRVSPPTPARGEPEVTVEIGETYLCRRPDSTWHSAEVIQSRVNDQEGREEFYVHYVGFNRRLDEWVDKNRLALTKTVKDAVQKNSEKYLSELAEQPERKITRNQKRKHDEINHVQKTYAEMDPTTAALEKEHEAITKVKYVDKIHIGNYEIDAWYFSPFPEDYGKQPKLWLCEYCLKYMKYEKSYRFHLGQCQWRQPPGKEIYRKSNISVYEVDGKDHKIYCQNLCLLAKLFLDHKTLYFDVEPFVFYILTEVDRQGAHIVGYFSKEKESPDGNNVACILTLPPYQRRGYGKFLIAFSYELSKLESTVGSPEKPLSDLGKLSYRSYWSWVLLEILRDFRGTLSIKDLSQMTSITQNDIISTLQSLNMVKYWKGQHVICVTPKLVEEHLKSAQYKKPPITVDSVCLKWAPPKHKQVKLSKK

[2] = target: T2, UBASH3A Ubiquitin-associated and SH3 domain-containing protein A C435 (P57075) (Homo sapiens, UniProt P57075); assay: Cysteine reactivity ABPP; type: binding; conditions: 100
T2 construct: endogenous in cells; host or cells: primary human T cells
T2 sequence (P57075 1-661): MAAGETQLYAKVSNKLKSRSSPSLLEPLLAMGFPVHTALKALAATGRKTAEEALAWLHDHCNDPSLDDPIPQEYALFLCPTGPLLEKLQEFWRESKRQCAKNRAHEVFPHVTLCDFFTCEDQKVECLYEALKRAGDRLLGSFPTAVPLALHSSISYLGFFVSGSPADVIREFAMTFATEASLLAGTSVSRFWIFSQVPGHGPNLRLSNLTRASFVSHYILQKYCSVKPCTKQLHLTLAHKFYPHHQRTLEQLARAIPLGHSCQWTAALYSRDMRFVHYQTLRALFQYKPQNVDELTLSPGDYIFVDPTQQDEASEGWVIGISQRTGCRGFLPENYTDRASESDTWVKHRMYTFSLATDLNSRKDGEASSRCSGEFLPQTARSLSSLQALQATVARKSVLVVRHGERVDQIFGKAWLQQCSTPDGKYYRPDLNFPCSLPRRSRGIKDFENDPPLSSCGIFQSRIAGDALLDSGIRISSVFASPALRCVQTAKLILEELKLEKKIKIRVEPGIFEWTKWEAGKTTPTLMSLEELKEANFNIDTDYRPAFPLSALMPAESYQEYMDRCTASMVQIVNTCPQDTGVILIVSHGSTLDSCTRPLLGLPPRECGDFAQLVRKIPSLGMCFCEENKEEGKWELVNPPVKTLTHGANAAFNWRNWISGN

Cysteine reactivity proteomic data [1]: 67.98
Cysteine reactivity proteomic data [2]: 78.65
SMILES: O=C(CCl)N1CCN(S(=O)(=O)c2ccc(-c3ccncc3)cc2)CC1 [Compound B9]
